According to patent publication US20240192197A1, “NOVEL SCREENING SYSTEM FOR DRUG TARGET ANTAGONIST BASED ON CELL LIFE/DEATH PHENOTYPE” (CENTER FOR EXCELLENCE IN MOLECULAR CELL SCIENCE, CHINESE …, priority 2021, published 2024):

Target: T1, FKBP12(F36V)-ΔCASP9 fusion protein (Homo sapiens, UniProt P55211+P62942, F37V)
T1 construct: expressed in transfected cells
Assay: Verification of screening cell lines: AP1903-induced death of cells expressing target protein-FKBP12(F36V)-ΔCASP9 fusion
Assay type: cell-based
Details: no target protein degradation agent present
From the text: The screening system of the F-C fusion protein of the present invention can be applied to important targets of various diseases.

T1 sequence (P62942+P55211 fused P62942:F37V): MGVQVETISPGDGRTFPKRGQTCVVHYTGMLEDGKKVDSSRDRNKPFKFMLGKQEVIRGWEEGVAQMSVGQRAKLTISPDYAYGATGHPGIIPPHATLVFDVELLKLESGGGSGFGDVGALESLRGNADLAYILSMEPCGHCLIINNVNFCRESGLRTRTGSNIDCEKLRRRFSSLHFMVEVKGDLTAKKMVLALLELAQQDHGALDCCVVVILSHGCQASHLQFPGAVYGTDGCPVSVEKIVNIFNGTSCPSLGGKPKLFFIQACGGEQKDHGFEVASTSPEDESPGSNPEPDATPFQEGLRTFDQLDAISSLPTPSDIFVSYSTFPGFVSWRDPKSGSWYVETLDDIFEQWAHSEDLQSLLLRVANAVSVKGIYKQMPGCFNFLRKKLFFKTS

Question: How did the “state of cells expressing target protein-FKBP12(F36V)-ΔCASP9 fusion after AP1903” value turn out when `CC[C@H](C(=O)N1CCCC[C@H]1C(=O)O[C@H](CCc1ccc(OC)c(OC)c1)c1cccc(OCC(=O)NCCNC(=O)COc2cccc([C@@H](CCc3ccc(OC)c(OC)c3)OC(=O)[C@@H]3CCCCN3C(=O)[C@@H](CC)c3cc(OC)c(OC)c(OC)c3)c2)c1)c1cc(OC)c(OC)c(OC)c1` [AP1903] was run?
Answer: The value was “cells are dead”.
